Measured values: patent US11713305B2, “Zinc sensors for in vivo imaging of beta-cell function by MRI” (The Board of Regents of the University of Texas System, priority 2017, dated 2023)

Assay: Kinetic inertness (transmetalation by Zn(II) in phosphate buffer)
Assay type: physicochemical
Settings: four equivalents of Zn^2+ in phosphate buffer (pH=7), 310 K
Text: Shortly after the first confirmed clinical cases of nephrogenic systemic fibrosis (NSF), increased efforts have been made to design agents with high thermodynamic stability and kinetic inertness (Kallen et al., 2008; Reilly, 2008; Rofsky et al., 2008; Wiginton et al., 2008; Abujuden et al., 2009). The sensors shown here are very stable macrocyclic DO3A-monoamide derivatives with reported log KML>20. However, given that the agents reported here also have a high affinity for Zn^2+ ions, and Zn^2+ has been implicated as the major competing ion for transmetalation of Gd^3+ agents derived from linear polyamine ligands, the kinetic rate of Gd^3+ release is arguably the most critical factor in determining in vivo toxicity (Laurent et al., 2010). Using a previously published method (Laurent et al., 2010) consisting of incubating each agent with four equivalents of Zn^2+ in phosphate buffer (pH=7), we compared the kinetic stability of the agents reported here with the FDA-approved agent Magnevist® (GdDTPA, cf. FIG. 7).
Kinetic inertness was determined according to published procedures with minor modifications (Laurent et al., 2010; Silverio et al., 2009). Stock solutions of phosphate buffer (67 mM, pH=7.4), Gd(III) chelates (10 mM) and ZnCl2 (231 mM) were prepared first. Calculated volumes of stock solutions or water were pipetted into small glass vials to obtain a test solution of 300 μL with 30 mM phosphate, 1.5 mM Gd(III) chelate, and 6.0 mM Zn(II). Samples were measured 15 minutes after the sample temperature stabilized at 310 K. During the entire experiment, the samples inside the NMR tubes were kept in an incubator at 310 K. The T1 of the solutions was determined at 310 K and 0.47 T (20 MHz) at various time points within 7 days. As a reference, GdDTPA was analyzed under the same conditions. The R1^P relaxation rate is obtained by subtracting the diamagnetic contribution of the water relaxation (0.28 s-1) from the observed relaxation rate R1=(1/T1).

Compound | kinetic stability against transmetalation
O=C(O)CN1CCN(CC(=O)O)CCN(CC(=O)NCCN(CCc2ccccn2)Cc2ccccn2)CCN(CC(=O)O)CC1 [GdL4] | kinetically inert

Assay: 17O NMR of Gd complexes (water exchange, SBM fitting)
Assay type: physicochemical
Design: A/ℏ: unit not given here
Settings: 17O NMR fit; underlined values fixed during fitting
Description: Given that the rate of water exchange (kex) in these complexes is likely the limiting factor in determining the magnitude of r1 increase when the GdL-Zn complexes bind to HSA, further temperature dependent ^17O NMR studies were performed to evaluate the water exchange rates. A simultaneous analysis of ^17O reduced T1, T2, and chemical shift (Δωr) data were analyzed (Powell et al., 1996; Gonzalez et al., 1994; Martins et al., 2013; Martins et al., 2015) to estimate the q values, kex, and hyperfine coupling constants for GdL1-5.
^17O NMR experiments were performed at 9.4 T on a Bruker AVANCE III NMR spectrometer. The temperature was regulated by air flow controlled by a Bruker VT unit. The samples ([Gd^3+]=25 mM; [Dy^3+]=1 mM) were prepared in ^17O enriched water (10%) with the pH being maintained at 7.4 with 100 mM Tris buffer. The sample was loaded into a 18 μL spherical bulb (Wilmad-Lab Glass, Vineland, NJ) and placed inside a 5 mm NMR tube containing 400 μL of water to eliminate any susceptibility effects. Longitudinal relaxation rates (1/T1) were obtained by the inversion recovery method and transverse relaxation rates (1/T2) were obtained by the Carr-Purcell—Meiboom—Gill spin echo technique. The acidified water (pH=3.0) containing 10% enriched ^17O water was used as a reference for the measurements. For the DyL4 complexes (no HSA and with HSA+Zinc), acidified water solutions and 1 mM LaL4+3 mM HSA with zinc (1:1) were used as the corresponding references. The corresponding fittings were performed with the Scientist 3.0 software (Micromath®).
^17O NMR data have been analyzed within the framework of Solomon-Bloembergen-Morgan theory.
From the measured ^17O NMR relaxation rates and angular frequencies of the paramagnetic solutions, 1/T1, 1/T2 and ω, and of the acidified water reference, a1/T1A, 1/T2A and ωA, one can calculate the reduced relaxation rates and chemical shifts, 1/7′2, and Δωr, which may be written in Equations (A1)-(A3), where, 1/T1m, 1/T2m, is the relaxation rate of the bound water and Awn, is the chemical shift difference between bound and bulk water molecules, τm is the mean residence time or the inverse of the water exchange rate kex and Pm is the mole fraction of the bound water (Swift and Connick, 1962; Zimmerman and Brittin, 1957).
The outer sphere contributions to the ^17O relaxation rates 1/T1OS and 1/T2OS are being neglected according to previous studies (Micskei et al., 1993). Therefore, Equations (A1-A2) can be further simplified to Equations (A4) and (A5): […]
The exchange rate is supposed to obey the Eyring Equation. In Equation (A6) ΔS^‡ and ΔH^‡ are the entropy and enthalpy of activation for the water exchange process, and kex^298 is the exchange rate at 298.15 K.
In the transverse relaxation, the scalar contribution, 1/T2s, is the most relevant [Equation (A7)]. 1/τsl is the sum of the exchange rate constant and the electron spin relaxation rate [Equation (A8)].
The ^17O longitudinal relaxation rates in Gd^3+ solutions are the sum of the contributions of the dipole-dipole (dd) and quadrupolar (q) mechanisms as expressed by Equations (A11-A13) for non-extreme narrowing conditions, where γS is the electron and γ1 is the nuclear gyromagnetic ratio (γS=1.76×10^11 rad s^−1 T^−1, γ1=˜3.626×107 rad s^−1 T^−1), rGdO is the effective distance between the electron charge and the ^17O nucleus, I is the nuclear spin (5/2 for ^17O), x is the quadrupolar coupling constant and η is an asymmetry parameter:
In Equation (A3) the chemical shift of the bound water molecule, Δωm, depends on the hyperfine interaction between the Gd^3+ electron spin and the ^17O nucleus and is directly proportional to the scalar coupling constant, A/h, as expressed in Equation (A12) (Brittain and Desreux, 1984).
The isotopic Landé g factor is equal to 2.0 for the Gd^3+, B represents the magnetic field, and kB is the Boltzmann constant. […]

Compound | hyperfine coupling constant (AO/ℏ)
O=C(O)CCN1CCN(CC(=O)O)CCN(CC(=O)NCCN(Cc2ccccn2)Cc2ccccn2)CCN(CC(=O)O)CC1 [GdL3] | −3.7 ×10^6 rad/s
O=C(O)CN1CCN(CC(=O)O)CCN(CC(=O)NCCN(CCc2ccccn2)Cc2ccccn2)CCN(CC(=O)O)CC1 [GdL4] | −4.0 ± 0.2 ×10^6 rad/s
O=C(O)CN1CCN(CCC(=O)NCCN(CCc2ccccn2)Cc2ccccn2)CCN(CC(=O)O)CCN(CC(=O)O)CC1 [GdL5] | −3.9 ± 0.3 ×10^6 rad/s

Same assay, conditions: 17O NMR, 9.4 T, 310 K

Compound | water exchange rate kex^310
O=C(O)CCN1CCN(CC(=O)O)CCN(CC(=O)NCCN(Cc2ccccn2)Cc2ccccn2)CCN(CC(=O)O)CC1 [GdL3] | 90 ± 0.2 ×10^6 s^−1
O=C(O)CN1CCN(CC(=O)O)CCN(CC(=O)NCCN(CCc2ccccn2)Cc2ccccn2)CCN(CC(=O)O)CC1 [GdL4] | 3.0 ± 0.1 ×10^6 s^−1
O=C(O)CN1CCN(CCC(=O)NCCN(CCc2ccccn2)Cc2ccccn2)CCN(CC(=O)O)CCN(CC(=O)O)CC1 [GdL5] | 100 ± 1 ×10^6 s^−1

Same assay, conditions: best-fit, 17O NMR, [Gd^3+]=25 mM, 9.4 T

Compound | ΔH‡
O=C(O)CCN1CCN(CC(=O)O)CCN(CC(=O)NCCN(Cc2ccccn2)Cc2ccccn2)CCN(CC(=O)O)CC1 [GdL3] | 11.2 ± 0.239 kcal/mol
O=C(O)CN1CCN(CC(=O)O)CCN(CC(=O)NCCN(CCc2ccccn2)Cc2ccccn2)CCN(CC(=O)O)CC1 [GdL4] | 3.61 ± 0.359 kcal/mol
O=C(O)CN1CCN(CCC(=O)NCCN(CCc2ccccn2)Cc2ccccn2)CCN(CC(=O)O)CCN(CC(=O)O)CC1 [GdL5] | 10.9 ± 0.311 kcal/mol

Same assay, conditions: best-fit, 17O NMR; activation energy of rotational correlation time

Compound | ER
O=C(O)CCN1CCN(CC(=O)O)CCN(CC(=O)NCCN(Cc2ccccn2)Cc2ccccn2)CCN(CC(=O)O)CC1 [GdL3] | 4.11 ± 0.024 kcal/mol
O=C(O)CN1CCN(CC(=O)O)CCN(CC(=O)NCCN(CCc2ccccn2)Cc2ccccn2)CCN(CC(=O)O)CC1 [GdL4] | 4.16 ± 0.048 kcal/mol
O=C(O)CN1CCN(CCC(=O)NCCN(CCc2ccccn2)Cc2ccccn2)CCN(CC(=O)O)CCN(CC(=O)O)CC1 [GdL5] | 3.59 kcal/mol

Same assay, conditions: best-fit, 17O NMR; rotational correlation time

Compound | τRO^298
O=C(O)CCN1CCN(CC(=O)O)CCN(CC(=O)NCCN(Cc2ccccn2)Cc2ccccn2)CCN(CC(=O)O)CC1 [GdL3] | 320 ps
O=C(O)CN1CCN(CC(=O)O)CCN(CC(=O)NCCN(CCc2ccccn2)Cc2ccccn2)CCN(CC(=O)O)CC1 [GdL4] | 350 ± 12 ps
O=C(O)CN1CCN(CCC(=O)NCCN(CCc2ccccn2)Cc2ccccn2)CCN(CC(=O)O)CCN(CC(=O)O)CC1 [GdL5] | 305 ± 10 ps

Same assay, conditions: best-fit, 17O NMR; scalar coupling constant

Compound | A/ℏ
O=C(O)CCN1CCN(CC(=O)O)CCN(CC(=O)NCCN(Cc2ccccn2)Cc2ccccn2)CCN(CC(=O)O)CC1 [GdL3] | −3.7
O=C(O)CN1CCN(CC(=O)O)CCN(CC(=O)NCCN(CCc2ccccn2)Cc2ccccn2)CCN(CC(=O)O)CC1 [GdL4] | −4.0 ± 0.4
O=C(O)CN1CCN(CCC(=O)NCCN(CCc2ccccn2)Cc2ccccn2)CCN(CC(=O)O)CCN(CC(=O)O)CC1 [GdL5] | −3.9 ± 0.2

Same assay, conditions: best-fit, 17O NMR; sometimes fixed

Compound | EV | Δ^2 | τV^298
O=C(O)CCN1CCN(CC(=O)O)CCN(CC(=O)NCCN(Cc2ccccn2)Cc2ccccn2)CCN(CC(=O)O)CC1 [GdL3] | 0.263 kcal/mol | 0.13 10^20 s^−2 | 7.1 ps
O=C(O)CN1CCN(CC(=O)O)CCN(CC(=O)NCCN(CCc2ccccn2)Cc2ccccn2)CCN(CC(=O)O)CC1 [GdL4] | 0.239 kcal/mol | 0.16 10^20 s^−2 | 11 ps
O=C(O)CN1CCN(CCC(=O)NCCN(CCc2ccccn2)Cc2ccccn2)CCN(CC(=O)O)CCN(CC(=O)O)CC1 [GdL5] | 0.239 kcal/mol | 0.67 ± 0.2 10^20 s^−2 | 14 ± 0.2 ps

Same assay, conditions: compared with GdL1 and GdL4

Compound | faster water exchange rates
O=C(O)CCN1CCN(CC(=O)O)CCN(CC(=O)NCCN(Cc2ccccn2)Cc2ccccn2)CCN(CC(=O)O)CC1 [GdL3] | ~30 fold
O=C(O)CN1CCN(CCC(=O)NCCN(CCc2ccccn2)Cc2ccccn2)CCN(CC(=O)O)CCN(CC(=O)O)CC1 [GdL5] | ~30 fold

Same assay, conditions: fitted

Compound | empirical constant describing the outer sphere contribution to the 17O chemical shift, Cos
O=C(O)CCN1CCN(CC(=O)O)CCN(CC(=O)NCCN(Cc2ccccn2)Cc2ccccn2)CCN(CC(=O)O)CC1 [GdL3] | 0.1

Same assay, conditions: slowest exchange rates; in 1/s

Compound | water exchange rate kex
O=C(O)CN1CCN(CC(=O)O)CCN(CC(=O)NCCN(CCc2ccccn2)Cc2ccccn2)CCN(CC(=O)O)CC1 [GdL4] | ~3 ×106 5-1
